Measured values published in ChEMBL document CHEMBL5576102, “Characterization of Sesquiterpene Dimers from the Flowers of Inula japonica and the Structural Revisions of Related Compounds” (J Nat Prod, 2024).

How the values were obtained:
RAW264.7 [1] = test: Cytotoxicity against mouse RAW264.7 cells upto 50 uM measured after 48 hrs by MTT assay; assay type: toxicity, cell-based; conditions: raw264.7, 48 h
RAW264.7 [2] = test: Anti-inflammatory activity in LPS-stimulated mouse RAW264.7 cells assessed as inhibition of NO production measured after 48 hrs by Griess assay; assay type: functional, cell-based; conditions: RAW264.7, 48 h
RAW264.7 [3] = test: Cytotoxicity against mouse RAW264.7 cells upto 25 uM measured after 48 hrs by MTT assay; assay type: toxicity, cell-based; conditions: raw264.7, 48 h
RAW264.7 [4] = test: Cytotoxicity against mouse RAW264.7 cells at 6.25 to 3.125 uM measured after 48 hrs by MTT assay; assay type: toxicity, cell-based; conditions: raw264.7, 48 h, dose 6.25-3.125 µM

Compound | IC50 (RAW264.7 [2]) | Activity (RAW264.7 [1]) | Activity (RAW264.7 [3]) | Activity (RAW264.7 [4])
Cc1ccc([C@@]2(C(=O)O)CC[C@H](C(=O)O)c3cc([C@@H](C)CCCO)c(C)cc32)cc1[C@@H](C)CCCO | > 50 µM | Non-Toxic |  | 
C=C1C(=O)O[C@H]2C[C@H](C)[C@@]34C[C@@]5(C(=O)O[C@@H]6C[C@@](C)(O)C([C@@H](C)CCCO)=C[C@@H]65)[C@@H](C(C)=C3C[C@H]12)[C@@H]4OC(C)=O | 10 µM | Non-Toxic |  | 
CC(=O)O[C@H]1[C@@H]2C(C)=C3C[C@H]4[C@H](C[C@H](C)[C@@]31C[C@@]21C(=O)O[C@@H]2C[C@@](C)(O)C([C@@H](C)CCCO)=C[C@@H]21)OC(=O)[C@H]4C | > 50 µM | Non-Toxic |  | 
CC(=O)O[C@H]1[C@@H]2C(C)=C3C[C@H]4[C@H](C[C@H](C)[C@@]31C[C@]2(C(=O)O)c1ccc(C)c([C@@H](C)CCCO)c1)OC(=O)[C@H]4C | > 50 µM | Non-Toxic |  | 

Further lines, with some results ahead:

IC50 (RAW264.7 [2]) | Compound | Activity (RAW264.7 [1]) | Activity (RAW264.7 [3]) | Activity (RAW264.7 [4])
5.73 µM | CC(=O)OCCC[C@H](C)C1=C(C)C[C@H]2OC(=O)[C@@]3(C[C@]45C(=C(C)[C@H]3[C@@H]4OC(C)=O)C[C@H]3[C@H](C[C@@H]5C)OC(=O)[C@H]3C)[C@H]2[C@@H]1O |  | Non-Toxic | 
> 50 µM | C=C1C[C@H]2OC(=O)[C@@]3(C[C@]45C(=C(C)[C@H]3[C@@H]4OC(C)=O)C[C@@H]3C(=C)C(=O)O[C@H]3C[C@@H]5C)[C@H]2C=C1[C@@H](C)CCCOC(C)=O |  |  | Non-Toxic
7.82 µM | C=C1C(=O)O[C@H]2C[C@H](C)[C@@]34C[C@](C(=O)O)(c5ccc(C)c([C@@H](C)CCCO)c5)[C@@H](C(C)=C3C[C@H]12)[C@@H]4OC(C)=O | Non-Toxic |  | 
4.07 µM | C=C1C(=O)O[C@H]2C[C@H](C)[C@@]34C[C@@]5(C(=O)O[C@@H]6C[C@](C)(O)C([C@@H](C)CCCOC(C)=O)=C[C@@H]65)[C@@H](C(C)=C3C[C@H]12)[C@@H]4OC(C)=O |  | Non-Toxic | 
> 50 µM | CC(=O)OCCC[C@H](C)c1cc([C@@]2(C(=O)O)CC[C@H](C(=O)O)c3cc([C@@H](C)CCCO)c(C)cc32)ccc1C | Non-Toxic |  | 
> 50 µM | CC(=O)OCCC[C@H](C)c1cc([C@@]2(C(=O)O)CC[C@H](C(=O)O)c3cc([C@@H](C)CCCOC(C)=O)c(C)cc32)ccc1C | Non-Toxic |  | 
44 µM | C[C@]12CCC(=O)C=C1CC[C@@H]1[C@@H]2[C@@H](O)C[C@@]2(C)[C@H]1CC[C@]2(O)C(=O)COC(=O)CCC(=O)O [HYDROCORTISONE SODIUM SUCCINATE] |  |  | 
